Results as given in US9383348B2, “Compositions and methods for treating lung disorders” (priority 2008, dated 2016).

Assays:
[1] = test system: cytokine (IL-1 and IFN-γ) insufflated rats; experiment: IL-1 and IFN-γ insufflation inflammatory acute lung injury (ARDS) in rats; type: in vivo
Description: Insufflating IL-1 and interferon-γ (IFN-γ) produced an inflammatory acute lung injury (ARDS) in rats 24 hours later (9). Cytokine insufflated rats had increased lung lavage LDH concentrations (FIG. 2A) and neutrophil numbers (FIG. 2B) compared to saline insufflated control rats. […] Lavage LDH levels paralleled other measures of lung injury including increased epithelial-derived cytokeratin 18 and endothelial-derived angiotensin converting enzyme (ACE) levels and morphologic evidence of inflammation and injury.
Remarkably, protection occurred with ERGO administered post-insult even after some neutrophils had invaded the lung.
[…] Each value is the mean +/−SEM of 3 to 6 determinations.

IL-1 insufflated rats = experiment: IL-1 insufflation inflammatory acute lung injury (ARDS) in rats; type: in vivo; conditions: NAC 150 mg/kg intravenously either just before or 2½ hours after IL-1 insufflation; 5 hours; compared to untreated IL-1 insufflated rats
Description: Insufflating IL-1 produced an inflammatory acute lung injury (ARDS, FIG. 1A) in rats 5 hours later, which was associated with increases in lung lavage neutrophils (FIG. 1B), expired H2O2 levels (FIG. 1C) and lung GSSG levels (FIG. 1D). In contrast, rats administered NAC (150 mg/kg intravenously) either just before or 2½ hours after IL-1 insufflation had decreased lung leak index, lung lavage neutrophil numbers, expired H2O2 levels and lung GSSG levels compared to untreated rats insufflated with IL-1.

[2] = single intravenous bolus 15 mg/kg, 1 hour before cytokine insufflation, compared to untreated cytokine insufflated rats
[3] = single intravenous bolus 150 mg/kg, 18 hours after cytokine insufflation, compared to untreated cytokine insufflated rats
[4] = single intravenous injection 150 mg/kg, 1 hour before IL-1 and IFN-γ insufflation, 24 hours

| Structure (SMILES) | lung injury [1, 2] | lung neutrophils [1, 2] | lung neutrophil numbers [1, 3] | markers of alveolar capillary membrane injury [1, 3] | lung inflammation ([1]; single intravenous bolus 150 mg/kg, 18 hours after cytokine insufflation, data not shown) | lung lavage LDH concentrations [1, 4] | lung lavage neutrophil concentrations [1, 4] | lung lavage total leukocyte concentrations [1, 4] | expired H2O2 levels (IL-1 insufflated rats) | lung GSSG levels (IL-1 insufflated rats) | lung lavage neutrophil numbers (IL-1 insufflated rats) | lung leak index (IL-1 insufflated rats) |
| --- | --- | --- | --- | --- | --- | --- | --- | --- | --- | --- | --- | --- |
| C[N+](C)(C)[C@@H](Cc1c[nH]c(=S)[nH]1)C(=O)[O-] [ERGO, ergothioneine] | less | less | reduction in the severity | reduction in the severity | reduction in the severity | decreased | decreased | decreased |  |  |  |  |
| CC(=O)N[C@@H](CS)C(=O)O [NAC, N-acetylcysteine] |  |  |  |  |  |  |  |  | decreased | decreased | decreased | decreased |
